Assay results taken from patent US9249115B2, “N,N1 substituted piperazines having combined antiaggregant, anticoagulant and vasodilatory activity, and method for producing same” (Vertex Closed Joint Stock Company, priority 2011, dated 2016).

Columns and labels:
mesentery arterioles = experiment: Vasodilator properties, microcirculatory vessel responsiveness to noradrenalin, arterioles; type: in vivo, Wistar male rats
Procedure: (§1) Vasodilator properties of N,N′-substituted piperazines were evaluated according to their influence on microcirculatory vessel responsiveness.
(§2) The studies were done on Wistar male rats with mass of 300±30 g (laboratory animals nursery “Rappolovo”, RAMS). The animals were kept with unlimited food (standard ration for laboratory rats K-120 by <<Inform-korm>>, Russia) and water allowance.
(§3) The solutions of N,N′-substituted piperazines and physiological (control) solution were introduced via bolus injection within 1 min into caudal vein of non-anaesthetized animals according to the dosage of 5.0 ml per 1 kg. Immediately after the introduction the animals were put in separate standard cages for observation.
(§4) In 30 min after the injection the animals were anaesthetized (thiopental sodium, 60 mg/kg intraperitoneally). The loop of small intestine adjoined to mesoappendix was retrieved through inferomedian incision. To study microcirculation in mesentery venules and arterioles in transmitted light the rat was placed on thermostated microscope objective table. The application of noradrenalin solution (Aguettant, 2 mg/ml, Laboratoire AGUETTANT, France) was done directly on the mesentery (Furness J. B., Marshall J. M., 1974; Yantareva L. I., 2004).
(§5) The study of microcirculatory vessels was done with LUMAM I1 microscope (LOMO, Russia). The recording of video data was done with the camera (Optics and Electronics ISTA Ltd) attached to a personal computer. The processing of data was done with Video-Test 4.0 software (ISTA Ltd., Russia). The diameter of the vessel wall (D, m) before and after the application of noradrenalin and the starting time of blood flow slowdown induced by noradrenalin were measured (the measurements were done for 1 min after the application).

[1] = test system: experimental photothrombosis; experiment: Experimental photothrombosis model, arterial blood velocity; type: in vivo, Wistar male rats
Procedure: The studies were done on Wistar male rats with mass of 230±30 g (laboratory animals nursery “Rappolovo”, RAMS). The animals were kept with unlimited food (standard ration for laboratory rats K-120 by <<Inform-korm>>, Russia) and water allowance. […]
Thrombosis modeling: the drugs were introduced into left femoral vein, in 50 min afterwards 1 ml of Bengal rose A photosensitizer (Acros Organics, USA) solution was introduced with dose of 17 mg/kg [Boselli 2007, Petrischev 2009]. Then the incision of internal surface of animal right thigh about 2 cm in length was made. The section of the femoral vein about 5 mm in length was released from surrounding tissues and separated from neurovascular bundle. Beneath this section of the vein the black non-transparent plastic strip 3 mm in width was laid to screen off the vein and surrounding tissues from radiation. The irradiation was done using diode laser <<DPSS-laser>> (Diode Pumped Solid State Laser, South Korea) with 532 nm wavelength and 60 mW power. The area of irradiation was 1 mm^2, exposing time was 40 min. The blood flow in femoral artery was measured by high frequency Doppler ultrasonography method (<<Minimax-Doppler-K>> apparatus, frequency of sensor was 20 MHz). The blood velocity alteration due to irradiation was measured (Table 9).

mesentery venules = experiment: Vasodilator properties, microcirculatory vessel responsiveness to noradrenalin, venules; type: in vivo, Wistar male rats
Procedure: as §1, §2, §3, §4, §5

[2] = in vivo; cited from earlier work
[3] = 0.01 mmol/kg, noradrenalin 10^−6 g/ml
[4] = 0.025 mmol/kg, noradrenalin 10^−7 g/ml

Structure (SMILES) | % of vessel constriction (mesentery arterioles; [3]) | Blood flow slowdown, Latent period of slowdown (mesentery arterioles; [3]) | % of vessel constriction (mesentery arterioles; [4]) | V, cm/s (arterial blood velocity) ([1]; 0.01 mmol/kg, 0 min of irradiation) | V, cm/s (arterial blood velocity) ([1]; 0.01 mmol/kg, 10 min of irradiation) | V, cm/s (arterial blood velocity) ([1]; 0.01 mmol/kg, 20 min of irradiation) | V, cm/s (arterial blood velocity) ([1]; 0.01 mmol/kg, 30 min of irradiation) | V, cm/s (arterial blood velocity) ([1]; 0.01 mmol/kg, 40 min of irradiation) | V, cm/s (arterial blood velocity) ([1]; 0.025 mmol/kg, 0 min of irradiation) | V, cm/s (arterial blood velocity) ([1]; 0.025 mmol/kg, 10 min of irradiation) | V, cm/s (arterial blood velocity) ([1]; 0.025 mmol/kg, 20 min of irradiation) | V, cm/s (arterial blood velocity) ([1]; 0.025 mmol/kg, 30 min of irradiation) | V, cm/s (arterial blood velocity) ([1]; 0.025 mmol/kg, 40 min of irradiation) | % of vessel constriction (mesentery venules; [3]) | Blood flow slowdown, Latent period of slowdown (mesentery venules; [3]) | % of vessel constriction (mesentery venules; [4]) | dermal reactions that lead to treatment cessation [2] | gastrointestinal reactions that lead to treatment cessation [2]
COc1ccc(CN2CCN(CC(CS(=O)(=O)[O-])OS(=O)(=O)[O-])CC2)c(OC)c1OC.[Na+].[Na+] (stereo not drawn) [Example 14, 2-sulfooxy-3-(4-((2,3,4-trimethoxyphenyl)-methyl)piperazine-1-yl)propane-1-sulfonic acid disodium salt monohydrate] | 58% | 43 ± 4 s | 28% | 6.9 ± 3.2 cm/s | 7.00 ± 2.0 cm/s | 6.8 ± 2.0 cm/s | 6.9 ± 1.3 cm/s | 6.6 ± 1.4 cm/s | 8.3 ± 1.8 cm/s | 8.1 ± 1.3 cm/s | 8.3 ± 2.0 cm/s | 8.0 ± 1.3 cm/s | 8.2 ± 1.2 cm/s | 33% | 41 ± 6 s | 22% | – | –
Clc1ccccc1CN1CCc2sccc2C1 [ticlopidine] | – | – | – | – | – | – | – | – | – | – | – | – | – | – | – | – | 4-15% | up to 20%
